Laboratory results taken from patent publication US10874610B2, “Extracellular vesicle-based diagnostics and engineered exosomes for targeted therapeutics against cancer” (Northwestern University, priority 2016, dated 2020).

Tested on: BCSCs
Experiment: Cellular internalization pathway of bioengineered exosomes using endocytic pathway inhibitors
Format: cell-based
Settings: BCSCs pretreated with inhibitor, then PKH67 labeled exosomes; microscopy and flow cytometry
Protocol: The mode of cellular internalization of the bioengineered exosomes was examined by using different endocytic pathway inhibitors. BCSCs were pretreated with different inhibitors including sucrose (inhibitor of clathrin-mediated endocytosis), amiloride (inhibitor of macropinocytosis), and filipin (inhibitor of caveolar uptake pathway), followed by the incubation with PKH67 labeled exosomes.

Row | SMILES | effect of inhibitor on cellular internalization of exosomes
1 | N=C(N)NC(=O)c1nc(Cl)c(N)nc1N [amiloride] | inhibited
2 | OC[C@H]1O[C@@](CO)(O[C@H]2O[C@H](CO)[C@@H](O)[C@H](O)[C@H]2O)[C@@H](O)[C@@H]1O [sucrose] | inhibited
